The conditions of series [1]: study comparing aprotinin with aminocaproic acid; cited from earlier work.
The target of a further series is chymotrypsin (Bos taurus, UniProt P00766). Kind of series: Chymotrypsin inhibition, BTPNA substrate, absorbance at 405 nm (Examples 9, 13-19, 23, 24, 27, 30, 31). The conditions noted are these: for Inhibition %: Example 15.
Series [2] can be described thus: GLP-1 peptide formulations with SNAC and trace elements: dissolution in aqua purificata, visual (Example 4). It counts as physicochemical. The conditions noted are these: liraglutide 1.8 mg/ml, SNAC 20 mg, trace element 2 mg, disodium phosphate dihydrate, 2 ml aqua purificata. The method, then:
Compositions comprising a GLP-1 peptide, a complexing agent (disodium phosphate dihydrate), the absorption enhancer N-(8-[2-hydroxybenzoyl]amino)caprylic acid (SNAC) and various trace elements or metal salts were prepared and dissolved in 2 ml of aqua purificata and examined visually.

The target in a further series is T1, trypsin (Bos taurus, UniProt P00760).
T1 construct: gene PRSS1
T1 sequence (P00760 24-246): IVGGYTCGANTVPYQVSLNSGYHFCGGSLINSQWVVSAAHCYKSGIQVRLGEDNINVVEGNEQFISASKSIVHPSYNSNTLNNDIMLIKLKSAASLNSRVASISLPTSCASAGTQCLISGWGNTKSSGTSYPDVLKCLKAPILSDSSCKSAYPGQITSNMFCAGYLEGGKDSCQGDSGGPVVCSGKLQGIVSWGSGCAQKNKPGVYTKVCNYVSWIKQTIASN
Kind of series: Trypsin inhibition, BAPNA substrate, absorbance at 405 nm (Examples 10-12, 20-22, 25, 26, 28, 29, 33). Format: biochemical. The conditions noted are these: for inhibition of trypsin: 50 mM TRIS pH 7. As to the method:
100 mg/ml copper gluconate in 50 mM TRIS pH 7; pH was adjusted to pH 7; stock solution was diluted to the following concentrations: 50 mg/ml, 25 mg/ml, 12.5 mg/ml, 5 mg/ml, 6.25 mg/ml, 3.125 mg/ml, 2.5 mg/ml, 1.25 mg/ml, 0.625 mg/ml, 0.313 mg/ml, 0.156 mg/ml and 0.078 mg/ml
0.5 mg/mL Benzoyl-Arginine p-nitroanilide (BAPNA)
100 μl 50 mM TRIS pH 7+50 μL Trypsin Stock+50 μL BAPNA Stock
100 μl Copper solution (according to the above described dilutions)+50 μL Trypsin Stock+50 μL BAPNA Stock
Absorption was measured after 15 minutes at 405 nm.
Values were corrected (subtraction of blank).
100 mg/ml Zinc bisglycinate in 50 mM TRIS pH 7; pH was adjusted to pH 7; stock solution was diluted to the following concentrations: 50 mg/ml and 25 mg/ml
100 μl Zinc solution (according to the above described dilutions)+50 μL Trypsin Stock+50 μL BAPNA Stock
10 mg/ml iron gluconate in 50 mM TRIS pH 7; pH was adjusted to pH 7; stock solution was diluted to the following concentrations: 5 mg/ml, 2.5 mg/ml, 1.25 mg/ml and 0.625 mg/ml
100 μl Iron solution (according to the above described dilutions)+50 μL Trypsin Stock+50 μL BAPNA Stock
Absorption was measured directly at 405 nm.
Benzoyl-Arginine p-nitroanilide (BAPNA): 0.5 mg/ml in 50 mM TRIS pH 7 (centrifuged and supernatant used as stock solution)
Trypsin: […] in 50 mM TRIS pH 7
1 mg/mL iron gluconate in 10 mM TRIS pH 7 (iron content=12%), 0.12 mg/ml iron
12 mg/mL copper lysinate in 10 mM TRIS pH 7 (copper content=3%), 0.12 mg/ml copper
100 μl of the respective salt solution+50 μL Trypsin Stock+50 μL BAPNA Stock
Experiments were carried out at pH 7, 50 mM TRIS.
0.025 mg/ml Trypsin, 0.125 mg/mL Benzoyl-Arginine p-nitroanilide (BAPNA.) Lauryl glutamate:
0.25 mg/ml; copper content (as copper(II)gluconate): 0.035 mg/ml.
Adsorption measurement at 405 nm
0.025 mg/ml Trypsin, 0.125 mg/mL Benzoyl-Arginine p-nitroanilide (BAPNA). lauryl-glutamate:
Absorption measurement at 405 nm
0.025 mg/ml Trypsin, 0.125 mg/mL Benzoyl-Arginine p-nitroanilide (BAPNA). Capryl-glucoside:
Copper sulfate stock solution: 1 mg/ml of copper sulfate was dissolved in 50 mM TRIS pH 7. Copper tartrate stock solution: 1 mg/ml of copper tartrate was dispersed in 50 mM TRIS pH 7 and moderately stirred for 5 minutes. The suspension was then centrifuged at 3′000 rpm for 10 minutes, to separate the insoluble salt. The supernatant was used as stock solution for the experiments.
Zinc orotate stock solution: 1 mg/ml of zinc orotate was dispersed in 50 mM TRIS pH 7 and moderately stirred for 5 minutes. The suspension was then centrifuged at 3′000 rpm for 10 minutes, to separate the insoluble salt. The supernatant was used as stock solution for the experiments.
100 μL of the respective salt solution stock+50 μL Trypsin Stock+50 μL BAPNA Stock
Control: 100 μL of 50 mM TRIS pH 7+50 μL Trypsin Stock+50 μL BAPNA Stock
Final concentrations of protease and substrate were 0.025 mg/ml Trypsin, 0.125 mg/mL
50 μl manganese sulfate+50 μl copper gluconate+50 μL Trypsin Stock+50 μL BAPNA Stock
Absorption measurement at 405 nm; final pH in all solutions was monitored to be pH 7.
3 mg/ml SiO2—suspended in 50 mM TRIS pH 7 and centrifuged; supernatant was used for experiments.
50 μl SiO2+50 μl 50 mM TRIS pH 7+50 μL Trypsin Stock+50 μL BAPNA Stock
50 μl copper gluconate+50 μl SiO2+50 μL Trypsin Stock+50 μL BAPNA Stock
50 μl iron gluconate+50 μl SiO2+50 μL Trypsin Stock+50 μL BAPNA Stock
120 μl 50 mM TRIS pH 7+50 μL Trypsin Stock+50 μL BAPNA Stock
80 μl copper gluconate+40 μl 50 mM TRIS pH 7+50 μL Trypsin Stock+50 μL BAPNA Stock
40 μl copper gluconate+80 μl 50 mM TRIS pH 7+50 μL Trypsin Stock+50 μL BAPNA Stock
80 μl iron gluconate+40 μl 50 mM TRIS pH 7+50 μL Trypsin Stock+50 μL BAPNA Stock
40 μl iron gluconate+80 μl 50 mM TRIS pH 7+50 μL Trypsin Stock+50 μL BAPNA Stock
80 μl iron gluconate+40 μl copper gluconate+50 μL Trypsin Stock+50 μL BAPNA Stock

Series [3] can be described thus: Pharmacokinetic profile of octreotide formulations after administration into proximal jejunum (Example 8). The method, then: The formulations OCT002, OCT003 and OCT004 were dissolved in an octreotide stock solution 5-10 min prior to dosing into proximal jejunum in volume of 0.4 ml/kg to anaesthetized rats. The final octreotide concentration of each formulation was 0.36 mg/kg. Blood was taken from tail vessels at the time points 0, 10, 20, 40, 60, 90 and 120 min after dosing. The octreotide plasma concentration was determined using commercial octreotide kit (Peninsula Laboratories International, Inc., USA, cat.number S-1342.0001).

Series [4] can be described thus: Pharmacokinetic profiles of PTH(1-34) formulations after intestinal administration (Example 3). Format: in vivo, Sprague Dawley rats. The conditions noted are these: relative to PTH(1-34) s.c. The method, then:
Teriparatide (PTH1-34) was dosed subcutaneously in volume of 1 ml/kg (final concentration 0.024 mg/ml teriparatide) to anaesthetized rats. TER001 and TER002 were dosed into ileum in volume of 0.4 mi/kg (final concentration 0.24 mg/ml teriparatide) to anaesthetized rats. […] The teriparatide plasma concentrations were determined using commercial pTH (1-34) human ELISA kit (Biovendor, EU, cat. number RS-1163.0001).

The mark [5] stands for this setting: Example 20, solutions 1 mg/mL iron gluconate, 1 mg/mL copper gluconate, 12 mg/mL copper lysinate, FIG. 11.
The mark [6] stands for this setting: Example 33, stocks 1 mg/ml copper(II)gluconate, 1 mg/ml iron(II)gluconate, 40 or 80 μl, pH 7, FIG. 23.
[7] abbreviates: Sprague Dawley, rat, in vivo, sc.

Description for chymotrypsin: CuSO4.5H2O dilutions in 10 mM TRIS buffer pH 7 to 10 mM, 5 mM, 2.5 mM 1.25 mM Benzoyl-Tyrosine p-nitroanilide (BTPNA): 0.5 mg/mL BTPNA in Acetone
Study: • (1) 100 μl buffer (10 mM TRIS, pH=7)+50 μl Chymotrypsin Stock+50 μl BTPNA • (2) 80 μl buffer (10 mM TRIS, pH=7)+20 μl CuSO4 stock (10 mM)+50 μl Chymotrypsin Stock+50 μl BTPNA • (3) 80 μl buffer (10 mM TRIS, pH=7)+20 μl CuSO4 dilut. (5 mM)+50 μl Chymotrypsin Stock+50 μl BTPNA • (4) 80 μl buffer (10 mM TRIS, pH=7)+20 μl CuSO4 stock (2.5 mM)+50 μl Chymotrypsin Stock+50 μl BTPNA • (5) 80 μl buffer (10 mM TRIS, pH=7)+20 μl CuSO4 dilut. (1.25 mM)+50 μl Chymotrypsin Stock+50 μl BTPNA
Final copper concentrations: 1 mM, 0.5 mM, 0.25 mM, 0.125 mM.
10 mM CuSO4 and Copper gluconate stock solution were diluted 1:1 with 10 mM TRIS buffer pH 7
Study: • (1) 100 μl buffer (10 mM TRIS, pH=7)+50 μl Chymotrypsin Stock+50 μl BTPNA • (2) 80 μl buffer (10 mM TRIS, pH=7)+20 μl CuSO4 dil. (5 mM)+50 μl Chymotrypsin Stock+50 μl BTPNA • (3) 80 μl buffer (10 mM TRIS, pH=7)+20 μl Copper gluconate dilut. (5 mM)+50 μl Chymotrypsin Stock+50 μl BTPNA • (4) 100 μl Cu-bisglycinate stock (0.5 mM)+50 μl Chymotrypsin Stock+50 μl BTPNA
10 mM CuSO4 stock solution was diluted 1:1 with 10 mM TRIS Puffer pH 7
Study: • (1) 30 μl buffer (10 mM TRIS, pH=7)+20 μl CuSO4 dil. (5 mM)+100 μl Chymotrypsin Stock: 30 min. incubation, then addition of 50 μl BTPNA • (2) 30 μl buffer (10 mM TRIS, pH=7)+100 μl Chymotrypsin Stock: 30 min. incubation, then addition of 20 μl CuSO4 dil. (5 mM)+50 μl BTPNA
Final copper concentration: 0.5 mM
Iron(II)-bisglycinate solution containing 1.86 mM of iron in 10 mM TRIS buffer pH 7 was prepared
Cu(II)-gluconate solution containing 2.0 mM of copper in 10 mM TRIS buffer pH 7 was prepared
Study: • (1) 100 μl buffer (10 mM TRIS, pH=7)+50 μl Chymotrypsin Stock+50 μl BTPNA • (2) 100 μl iron(II)-bisglycinate+50 μl Chymotrypsin Stock+50 μl BTPNA • (3) 100 μl copper(II)-gluconate+50 μl Chymotrypsin Stock+50 μl BTPNA
Values were corrected (subtraction of blank). Inhibition was calculated by setting the absorption value of (1) at each time-point as 100%.
Iron(II)-bisglycinate solution containing 0.46 mM of iron in 10 mM TRIS buffer pH 7 was prepared
Cu(II)- bisglycinate solution containing 0.46 mM of copper in 10 mM TRIS buffer pH 7 was prepared
Study: • (1) 100 μl buffer (10 mM TRIS, pH=7)+50 μl Chymotrypsin Stock+50 μl BTPNA • (2) 100 μl iron(II)-bisglycinate+50 μl Chymotrypsin Stock+50 μl BTPNA • (3) 100 μl copper(II)-bisglycinate+50 μl Chymotrypsin Stock+50 μl BTPNA
Values were corrected (subtraction of blank). Inhibition (%) was calculated by setting the absorption value of (1) at each time-point as 100% degradation.
Values were corrected (subtraction of blank). pH was confirmed to be pH 7 after the experiment.
0.025 mg/ml Chymotrypsin, 0.05 mg/mL Benzoyl-Tyrosine p-nitroanilide (BTPNA). Lauryl glutamate: 0.25 mg/ml; copper (as copper gluconate): 0.035 mg/ml.
0.025 mg/ml Chymotrypsin, 0.05 mg/mL Benzoyl-Tyrosine p-nitroanilide (BTPNA). Lauryl glutamate: 0.25 mg/ml; iron (as iron gluconate): 0.03 mg/ml.
100 μl 50 mM TRIS pH 7+50 μL Chymotrypsin Stock+50 μL BTPNA Stock
50 μl Beta-cyclodextrin+50 μl 50 mM TRIS pH 7+50 μL Chymotrypsin Stock+50 μL BTPNA Stock
50 μl copper gluconate+50 μl 50 mM TRIS pH 7+50 μL Chymotrypsin Stock+50 μL BTPNA Stock
50 μl copper gluconate+50 μl Beta-cyclodextrin+50 μL Chymotrypsin Stock+50 μL BTPNA Stock
50 μl copper gluconate+50 μl trisodium phosphate+50 μL Chymotrypsin Stock+50 μL BTPNA Stock
50 μl iron gluconate+50 μl trisodium phosphate+50 μL Chymotrypsin Stock+50 μL BTPNA Stock
Experiments were carried out at pH 7 in 50 mM TRIS buffer.

In the case of Aprotinin, the increase in mortality in series [1] is 64%.

As to Iron gluconate, the chymotrypsin inhibition entry on chymotrypsin (Example 24, lauryl glutamate […], iron 0.03 mg/ml, pH 7, 50 mM TRIS, FIG. 15) is listed as “can be inhibited”. In addition, in series [2], the “Dissolution in aqua purificata” value is “Clear orange solution”. Moreover, on trypsin (Example 12, iron gluconate solutions 10 to 0.625 mg/ml, FIG. 5), the inhibition of trypsin result is listed as “inhibits the proteolytic enzyme trypsin in a dose dependent manner”. Further, the trypsin inhibition result on trypsin (setting [5]) is “can be inhibited”; at trypsin (Example 22, lauryl-glutamate […], iron 0.03 mg/ml, pH 7, 50 mM TRIS, FIG. 13), “can be inhibited”; on trypsin (Example 25, capryl-glucoside […], iron 0.03 mg/ml, pH 7, 50 mM TRIS, FIG. 16), “can be inhibited”; at trypsin (setting [6]) it was “can be inhibited”.

For `C[C@@H](O)[C@@H]1NC(=O)[C@H](CCCCN)NC(=O)[C@@H](Cc2c[nH]c3ccccc23)NC(=O)[C@H](Cc2ccccc2)NC(=O)[C@@H](NC(=O)[C@H](N)Cc2ccccc2)CSSC[C@@H](C(=O)N[C@H](CO)[C@@H](C)O)NC1=O` [Reference (s.c.), Octreotide], the “ΔAUC(0-120)” value in series [3] (OCT formulations 0.4 ml/kg into proximal jejunum, octreotide 0.36 mg/kg, reference s.c., anaesthetized rats) stood at 14126 ± 2727 ng·min/mL. The bioavailability – broadly, the share of a dose that reaches the circulation, judged against a reference dose that is usually intravenous – in series [3] (Sprague Dawley, rat, in vivo) was determined as 100 ± 19%. Also, in series [3] (setting [7]), the Cmax (commonly the maximum level reached in the sampled fluid or tissue) is 148 ± 36 ng/mL and the Tmax (as a rule, the time at which the peak concentration occurs) was 1.5 h.

As to Copper gluconate, the Inhibition % was found to be 0% at chymotrypsin (0 minutes, metal ion Fe 0.06 mg/ml (0.92 mM), Cu 0.065 mg/ml (1.0 mM), 10 mM TRIS pH 7); 82% at chymotrypsin (15 minutes, metal ion Fe 0.92 mM, Cu 1.0 mM); 84% at chymotrypsin (30 minutes, metal ion Fe 0.92 mM, Cu 1.0 mM); 82% at chymotrypsin (45 minutes, metal ion Fe 0.92 mM, Cu 1.0 mM); 79% at chymotrypsin (60 minutes, metal ion Fe 0.92 mM, Cu 1.0 mM). The chymotrypsin inhibition entry on chymotrypsin (Example 18, stocks: copper gluconate 10 mM, EDTA 5 mM, sodium caprylate 4 mg/ml, pH 7, FIG. 9) is “can inhibit chymotrypsin”; on chymotrypsin (Example 23, lauryl glutamate […], copper […], pH 7, 50 mM TRIS, FIG. 14) it was “can be inhibited”; at chymotrypsin (Example 27, stocks […] copper(II)gluconate, 1 mg/ml beta-cyclodextrin, FIG. 18), “can be inhibited”; on chymotrypsin (Example 31, stocks […] copper(II)gluconate, 1.25 mM EDTA, pH 7, 10 mM TRIS, FIG. 22), “can be inhibited”. For the same compound, the “Dissolution in aqua purificata” value in series [2] is “Clear yellowish solution”. In addition, the inhibition of trypsin entry at trypsin (Example 10, copper gluconate solutions 100 to 0.078 mg/ml, after 15 minutes, FIG. 3) is on record as “inhibits the proteolytic enzyme trypsin in a dose dependent manner”. Moreover, the trypsin inhibition result on trypsin (setting [5]) is on record as “can be inhibited”; at trypsin (Example 21, lauryl glutamate […], copper […], pH 7, 50 mM TRIS, FIG. 12), “can be inhibited”; at trypsin (Example 28, stocks 1 mg/ml copper(II)gluconate, 1 mg/ml manganese(II)sulfate, pH 7, FIG. 19) it was “can be inhibited”; at trypsin (setting [6]), “can be inhibited”.

As to `O=S(=O)([O-])[O-].[Cu+2]` [Copper sulfate], the inhibition of chymotrypsin result against chymotrypsin (Example 9, final copper 1, 0.5, 0.25, 0.125 mM, 10 mM TRIS pH 7, FIG. 2) is reported as “inhibits the proteolytic enzyme chymotrypsin in a dose dependent manner”. Moreover, the “influence of copper pre-incubation on chymotrypsin activity” value at chymotrypsin (Example 14, CuSO4, final copper 0.5 mM, 30 min pre-incubation, FIG. 7) is reported as “increases the chymotrypsin inhibitory activity”. In series [2], the “Dissolution in aqua purificata” value is given as “precipitation”. Besides, the trypsin inhibition result at trypsin (pH 7) is recorded as “strongly inhibited”.

As for `CC[C@H](C)[C@H](NC(=O)[C@H](CCC(=O)O)NC(=O)[C@H](CO)NC(=O)[C@@H](NC(=O)[C@@H](N)CO)C(C)C)C(=O)N[C@@H](CCC(N)=O)C(=O)N[C@@H](CC(C)C)C(=O)N[C@@H](CCSC)C(=O)N[C@@H](Cc1cnc[nH]1)C(=O)N[C@@H](CC(N)=O)C(=O)N[C@@H](CC(C)C)C(=O)NCC(=O)N[C@@H](CCCCN)C(=O)N[C@@H](Cc1cnc[nH]1)C(=O)N[C@@H](CC(C)C)C(=O)N[C@@H](CC(N)=O)C(=O)N[C@@H](CO)C(=O)N[C@@H](CCSC)C(=O)N[C@@H](CCC(=O)O)C(=O)N[C@@H](CCCN=C(N)N)C(=O)N[C@H](C(=O)N[C@@H](CCC(=O)O)C(=O)N[C@@H](Cc1c[nH]c2ccccc12)C(=O)N[C@@H](CC(C)C)C(=O)N[C@@H](CCCN=C(N)N)C(=O)N[C@@H](CCCCN)C(=O)N[C@@H](CCCCN)C(=O)N[C@@H](CC(C)C)C(=O)N[C@@H](CCC(N)=O)C(=O)N[C@@H](CC(=O)O)C(=O)N[C@H](C(=O)N[C@@H](Cc1cnc[nH]1)C(=O)N[C@@H](CC(N)=O)C(=O)N[C@@H](Cc1ccccc1)C(=O)O)C(C)C)C(C)C` [PTH (1-34) s.c., Teriparatide], in series [4], the F is recorded as 100 ± 23%.

(Values after US10905744B2, “Pharmaceutical formulations for the oral delivery of peptide drugs” (Cyprumed GmbH, priority 2015, dated 2021).)
